IC50 and CC50 data for 4 compounds are collected here from publication PMC7904790 (Nature Communications, 2021).

Data set [1] deals with T1, EML4-ALK WT.
T1 construct: EML4-ALK fusion, wild-type kinase domain, expressed in Ba/F3 cells
Briefly: cells. Particulars: Ba/F3 EML4-ALK, 72 h. Further details: CellTiter-Glo viability of Ba/F3 cells dependent on EML4-ALK, without IL-3. The protocol: To identify drugs that can overcome these mutations, we screened our focused 90-inhibitor library using Ba/F3 cells expressing EML4-ALK I1171N + F1174I and I1171N + L1198H. At a concentration of 50 nM, gilteritinib suppressed the viability of both wild-type (WT) and compound mutant Ba/F3 cells (Fig. 1a). Since gilteritinib has reported as multi-kinase inhibitor, we first evaluated whether the ALK inhibitory efficacy of gilteritinib is driven by on-target activity or not. As a result of western blot analysis, gilteritinib suppressed the autophosphorylation of ALK in EML4-ALK-expressing Ba/F3 cells (Fig. 1b and Supplementary Fig. 1). […] As well as Ba/F3 cell model, we verified the activity of gilteritinib to H3122 cell line that is EML4-ALK-positive NSCLC cells. […] Then, the inhibitory concentration of gilteritinib is matched between ALK phosphorylation and its downstream signals. […] Further, using the phosphoproteomics data, kinase substrate-enrichment analysis (KSEA) predicted activate kinase candidates as potential gilteritinib targets and identified ALK as the most likely regulated protein (Fig. 1e, Supplementary Figs. 3 and 4, and Supplementary Table 2). To establish Ba/F3 cells expression WT or mutant EML4-ALK, TPM3-NTRK1, and CD74-ROS1 fusion proteins, pLenti6.3 vectors containing the cDNA of these fusion oncogenes were transfected into 293FT cells using packaging plasmids (ViraPower) for lentivirus production. Ba/F3 cells were infected using lentivirus-containing medium supplemented with polybrene (8 μg/ml), and after 24 h of incubation, the infected cells were selected using 7 μg/ml blasticidin (Invitrogen) for 1 week. After selection, each EML4-ALK-, TPM3-NTRK1-, and CD74-ROS1-expressing cell line was cultured in D-10 without IL-3. […] To stablise H3122, JFCR-028-3, MCC-003 cells expression WT or mutant EML4-ALK, KRAS G12C, cells were infected using lentivirus-containing medium supplemented with polybrene (8 μg/ml). After 24 h of incubation, the infected cells were selected using 7 μg/ml blasticidin for H3122, JFCR028-3, and 10 μg/ml for MCC-003, respectively. To stablise H3122 cells expression AXL, pHAGE-AXL vector (purchased from addgene) was transfected into 293FT cells using packaging plasmids for lentivirus production. H3122 cells were infected using lentivirus-containing medium supplemented with polybrene (8 μg/ml), and after 24 h of incubation, EGFP-positive cells were sorted using FACSMelody (BD Bioscience, San Jose, CA, USA). To stablise NIH3T3 oncogene-expressing cells, cells were infected using lentivirus-containing medium supplemented with polybrene (8 μg/ml), and after 24 h of incubation, the infected cells were selected using 2 μg/ml blasticidin for 1 week.

Data set [2] in a line: in vitro. Particulars: mouse, parental ba/f3 cells +il-3; with IL-3; read-out: IC50 parental Ba/F3 (+IL-3). Further details: CellTiter-Glo viability of parental Ba/F3 cells with IL-3 (counter-screen). The protocol: To identify drugs that can overcome these mutations, we screened our focused 90-inhibitor library using Ba/F3 cells expressing EML4-ALK I1171N + F1174I and I1171N + L1198H. At a concentration of 50 nM, gilteritinib suppressed the viability of both wild-type (WT) and compound mutant Ba/F3 cells (Fig. 1a). Since gilteritinib has reported as multi-kinase inhibitor, we first evaluated whether the ALK inhibitory efficacy of gilteritinib is driven by on-target activity or not. As a result of western blot analysis, gilteritinib suppressed the autophosphorylation of ALK in EML4-ALK-expressing Ba/F3 cells (Fig. 1b and Supplementary Fig. 1). […] As well as Ba/F3 cell model, we verified the activity of gilteritinib to H3122 cell line that is EML4-ALK-positive NSCLC cells. […] Then, the inhibitory concentration of gilteritinib is matched between ALK phosphorylation and its downstream signals. […] Further, using the phosphoproteomics data, kinase substrate-enrichment analysis (KSEA) predicted activate kinase candidates as potential gilteritinib targets and identified ALK as the most likely regulated protein (Fig. 1e, Supplementary Figs. 3 and 4, and Supplementary Table 2).  Fig. 1 Identification of gilteritinib as an inhibitor of ALK-rearranged cancer cells. a Relative cell viability of parental (with IL-3), EML4-ALK wild-type (WT), EML4-ALK I1171N + F1174I, and EML4-ALK I1171N + L1198H Ba/F3 cells treated with 50 nM of the indicated inhibitors. Cell viability was analyzed using the CellTiter-Glo assay and calculated relative to the viability of dimethyl sulfoxide-treated Ba/F3 cells. b The suppression of phospho-ALK in I1171N + F1174I, I1171N + L1198H mutation-expressing Ba/F3 cells was evaluated using western blotting. Cells were treated with the indicated concentrations of gilteritinib for 3 h (n = 2). c The suppression of phospho-ALK and its downstream signals in H3122 parental cells and I1171N + F1174I compound mutation-expressing cells were evaluated using western blotting. […] N = 3 independent samples examined over three independent experiments and representative experiment data are presented as mean values ± SD. e Volcano plot displaying the −log10 (p-value) versus log2 (gilteritinib treatment/DMSO treatment) for all quantified phosphopeptides. The red diamond indicates phospho-ALK.

In data set [3] the test system is MCC-003. Briefly: cells. Further details: CellTiter-Glo viability of fusion-positive human cancer cell lines. Particulars: 72 h.
In data set [4] the test system is JFCR-018-1. Briefly: cells. Also noted: CellTiter-Glo viability of fusion-positive human cancer cell lines. Particulars: 72 h.
Data set [5] concerns KARPAS299. Put plainly: cells. Particulars: Homo sapiens, KARPAS-299, 72 h. Further details: CellTiter-Glo viability of fusion-positive human cancer cell lines.
Data set [6] has as its system JFCR-028-3. Briefly: cells. Also noted: CellTiter-Glo viability of fusion-positive human cancer cell lines. Particulars: 72 h.
Data set [7] has as its system H2228. Put plainly: cells. Further details: CellTiter-Glo viability of fusion-positive human cancer cell lines. Particulars: Homo sapiens, NCI-H2228, 72 h.
The test system of data set [8] is H3122. Put plainly: cells. Also noted: CellTiter-Glo viability of fusion-positive human cancer cell lines. Particulars: Homo sapiens, NCI-H3122, 72 h.

Read-outs that look alike come from different tables or passages of the source.

In general, IC50 refers to the midpoint of a concentration-inhibition curve. On to `COc1cc(N2CCC(N3CCN(C)CC3)CC2)ccc1Nc1ncc(Cl)c(Nc2ccccc2P(C)(C)=O)n1` [Brigatinib], for which the IC50 in data set [1] stood at […]; in data set [3] (read-out: Brigatinib IC50), 63 ± 11 nM; in data set [4] (read-out: Brigatinib IC50) it was 7.7 ± 0.46 nM; in data set [5] (read-out: Brigatinib IC50) it was 7.1 ± 2 nM; in data set [6] (read-out: Brigatinib IC50) it was 6.2 ± 1.5 nM; in data set [7] (read-out: Brigatinib IC50), 3.5 ± 1 nM. Moreover, the IC50 in data set [8] (read-out: Brigatinib IC50) is 7.9 ± 3.7 nM. The CC50 at 72 h in data set [2] was 578 ± 113 nM.
Turning to `Cc1cc(Nc2ncc(Cl)c(Nc3ccccc3S(=O)(=O)C(C)C)n2)c(OC(C)C)cc1C1CCNCC1` [Ceritinib], the IC50 in data set [1] came to […]; in data set [3] (read-out: Ceritinib IC50), 74 ± 22 nM; in data set [4] (read-out: Ceritinib IC50) it was 30 ± 3 nM; in data set [5] (read-out: Ceritinib IC50) it was 16 ± 6.9 nM; in data set [6] (read-out: Ceritinib IC50), 12 ± 3.3 nM; in data set [7] (read-out: Ceritinib IC50) it was 10 ± 3.6 nM. In data set [8] (read-out: Ceritinib IC50), the IC50 was 15 ± 2.1 nM. In data set [2], the CC50 at 72 h worked out at 623 ± 33 nM.
As for `C[C@@H](Oc1cc(-c2cnn(C3CCNCC3)c2)cnc1N)c1c(Cl)ccc(F)c1Cl` [Crizotinib], the IC50 was […] in data set [1], 136 ± 14 nM in data set [4] (read-out: Crizotinib IC50), 51 ± 5.3 nM in data set [5] (read-out: Crizotinib IC50) and 28 ± 14 nM in data set [7] (read-out: Crizotinib IC50). Further, the CC50 at 72 h in data set [2] was determined as 371 ± 50 nM.
As to `CCc1cc2c(cc1N1CCC(N3CCOCC3)CC1)C(C)(C)c1[nH]c3cc(C#N)ccc3c1C2=O` [alectinib], the IC50 in data set [1] is […]; in data set [3] (read-out: Alectinib IC50), 765 ± 97 nM; in data set [5] (read-out: Alectinib IC50), 43 ± 7.5 nM; in data set [7] (read-out: Alectinib IC50) it was 3.8 ± 1.2 nM. Moreover, in data set [2], the CC50 at 72 h was found to be 899 ± 12 nM.
